{"source": "paper PMC4754331", "about": "“Programming of metabolic effects in C57BL/6JxFVB mice by in utero and lactational exposure to perfluorooctanoic acid” (Archives of Toxicology, 2015)", "key": {"[1]": {"conditions": "cited from earlier work"}, "[2]": {"test_system": "C57BL/6JxFVB hybrid mice", "assay": "Offspring body weight and growth after perinatal exposure", "type": "in vivo", "parameters": "key to Time of effect: P: permanent effect on body weight throughout study; D: delayed (late onset) of effect; T: transient effect; E: effect observed during treatment", "conditions": "for Emax: Mus musculus", "method": "PFOA was obtained as sodium perfluoro-n-octanoate (PFOA-Na; CAS No. 335-95-5, purity >99 %) and kindly provided by Wellington Laboratories Inc., Ontario, Canada. PFOA-Na was dissolved in acetone and mixed with the diet (NIH-07, Research Diet Services, Wijk bij Duurstede, The Netherlands). Thereafter, acetone was allowed to evaporate, and this master mixture was serially diluted with a factor 3–3.3 by adding NIH-07, and afterward, the diet was pelleted. In this way, seven diet groups and a control NIH-07 (blank acetone was added) were obtained, aiming at concentrations of 0, 0.017, 0.056, 0.17, 0.56, 1.7, 5.6 and 17 mg/kg PFOA in feed, which corresponded to 0, 3, 10, 30, 100, 300, 1000 and 3000 µg/kg bw based on an average food consumption of 4.5 g per mouse (average body weight of 25 g) per day. PFOA concentrations in test diets were confirmed by isotope dilution liquid chromatography mass spectrometry after extraction with methanol (8402, JT Baker, Deventer the Netherlands) and a cleanup with carbon solid phase extraction (ENVI Carb, 57210-U, Supelco, Zwijndrecht, the Netherlands). Actual PFOA concentrations in the food were 15–30 % lower than the nominal values. The non-purified soy-based NIH-07 was chosen because it was originally designed to optimize gestation, lactation and growth of rodents, and avoiding natural phytoestrogens in the diet may have confounding effects (Ruhlen et al. [2008]). Estrogenic and anti-estrogenic activity for this diet was previously analyzed to be low and absent, respectively (van Esterik et al. [2014]).\nA high fat diet (D12451, Research Diet Services, Wijk bij Duurstede, The Netherlands), containing 45 kcal % fat (lard) compared with 15 kcal % fat in the NIH-07 diet, was given to all F1 mice during the final weeks of the study (21–28 weeks of age).\nAfter an acclimatization period of 1 week, female F0 mice were fed experimental diets explained above starting 2 weeks before mating and continued during mating (1 week), gestation (3 weeks) and lactation (3 weeks). Each dose group had six F0 females, which were mated three by three with two F0 males for each dose group. […] For every dose group, on average 9 mice per sex (range 6–10) were included for follow-up through juvenile and adult stages, selecting pups proportionally from available litters. F1 males were single-housed, and F1 females were housed in pairs from the same litter in standard Macrolon type I cages. Body weight was measured at postnatal day (PND) 4, 7, 14 and 21 and weekly from 5 weeks of age continuing until the end of the study. Food consumption could not be recorded reliably due to high spillage.\nGrowth was calculated by dividing body weight of subsequent weeks by body weight at week 5, i.e., at the start of the F1 follow-up."}, "[3]": {"conditions": "ref EFSA [2012]; EFSA [2008]; cited from earlier work"}, "[4]": {"test_system": "C57BL/6JxFVB hybrid mice", "assay": "White adipose tissue adipocyte size and number (perirenal fat pad)", "type": "in vivo", "conditions": "for White adipose tissue cell number: data not shown; for White adipose tissue adipocyte cell size: perirenal fat pad, 300 and 3000 combined", "method": "Some measurements included only control and one or two dose groups and could therefore not be analyzed as dose–responses. GTT was therefore evaluated by repeated-measures or nested (to account for litter covariance) two-way ANOVAs (Graphpad Prism 5.0, R) to detect differences at the different time points and between the areas under the curve (AUC). Activity measurement, ucp1 expression, WAT adipocyte size and the proxy for cell number were also tested with a nested ANOVA (R). Differences in distribution of BAT histopathology scores between experimental groups were tested for statistical significance in a two-tailed Fisher’s exact test."}, "[5]": {"conditions": "C57BL/6JxFVB, 3-10-30-100-300-1000-3000 µg/kg bw/d, diet, 2w pre-mating-PND21, this study"}, "[6]": {"conditions": "F1 females, CES 5 %, high fat diet"}}, "note": "Where two headings read alike, the source gives them in different places.", "data": [{"compound": "O=C(O)C(F)(F)C(F)(F)C(F)(F)C(F)(F)C(F)(F)C(F)(F)C(F)(F)F", "note": "[PFOA, Perfluorooctanoic acid]", "values": [{"measurement": "Elimination half-life in adult mice", "setting": "[1]; adult mice, ref Lau et al. [2006]", "value": 17, "unit": "days"}, {"measurement": "Time to steady-state level in serum of mice", "setting": "[1]; ref Lau et al. [2006]", "value": "≤ 1", "unit": "week"}, {"measurement": "Lowering of levels in offspring after maternal exposure was stopped", "setting": "[1]; within 6 weeks, ref Wolf et al. ([2007])", "value": 40, "unit": "times"}, {"measurement": "Endpoint bw (age) F", "setting": "[2]; [5]", "value": "↓ PND4–w27"}, {"measurement": "Endpoint bw (age) M", "setting": "[2]; [5]", "value": "↓ PND4–w23"}, {"measurement": "Time of effect", "setting": "[2]; C57BL/6JxFVB, this study, in males not observed during final 2 weeks (w24–25) under high fat diet", "value": "P^d"}, {"measurement": "Body weight week 21: BMDL", "setting": "[2]; F1 females, CES 5 %", "value": 1239, "unit": "µg/kg bw/d"}, {"measurement": "Body weight week 21: BMDU", "setting": "[2]; F1 females, CES 5 %", "value": 3595, "unit": "µg/kg bw/d"}, {"measurement": "Body weight week 27: BMDL", "setting": "[2]; [6]", "value": 849, "unit": "µg/kg bw/d"}, {"measurement": "Body weight week 27: BMDU", "setting": "[2]; [6]", "value": 5645, "unit": "µg/kg bw/d"}, {"measurement": "Body weight week 21: BMDL", "setting": "[2]; F1 males, CES 5 %", "value": 1024, "unit": "µg/kg bw/d"}, {"measurement": "Body weight week 21: BMDU", "setting": "[2]; F1 males, CES 5 %", "value": 3457, "unit": "µg/kg bw/d"}, {"measurement": "Growth week 25/5: BMDL", "setting": "[2]; F1 males, CES 5 %", "value": 948, "unit": "µg/kg bw/d"}, {"measurement": "Growth week 25/5: BMDU", "setting": "[2]; F1 males, CES 5 %", "value": 2383, "unit": "µg/kg bw/d"}, {"measurement": "Emax", "setting": "[2]; F1 females, read-out: Body weight week 21: max effect size", "value": -8, "unit": "%"}, {"measurement": "Emax", "setting": "[2]; F1 females, read-out: Body weight week 27: max effect size", "value": -9.1, "unit": "%"}, {"measurement": "Emax", "setting": "[2]; F1 females, read-out: Growth week 27/5: max effect size", "value": -8.6, "unit": "%"}, {"measurement": "Emax", "setting": "[2]; F1 males, read-out: Body weight week 21: max effect size", "value": -9.1, "unit": "%"}, {"measurement": "Emax", "setting": "[2]; F1 males, read-out: Growth week 25/5: max effect size", "value": 11, "unit": "%"}, {"measurement": "Body weight PND4: CED", "setting": "[2]; females, CES −0.05, Fig. 2c", "value": 0.0628, "unit": "µg/kg body weight/day"}, {"measurement": "Body weight PND4: CEDLbt", "setting": "[2]; females, CES −0.05, Fig. 2c", "value": "2.004e−08", "unit": "µg/kg body weight/day"}, {"measurement": "Body weight PND4: CEDUbt", "setting": "[2]; females, CES −0.05, Fig. 2c", "value": 42.23, "unit": "µg/kg body weight/day"}, {"measurement": "Body weight week 27: CED", "setting": "[2]; females, CES −0.05, Fig. 2d", "value": 1560, "unit": "µg/kg body weight/day"}, {"measurement": "Body weight week 27: CEDLbt", "setting": "[2]; females, CES −0.05, Fig. 2d", "value": 849.1, "unit": "µg/kg body weight/day"}, {"measurement": "Body weight week 27: CEDUbt", "setting": "[2]; females, CES −0.05, Fig. 2d", "value": 5645, "unit": "µg/kg body weight/day"}, {"measurement": "Body weight from PND4 until adulthood (week 21)", "setting": "[2]; females, standard diet", "value": "dose-dependently decreased"}, {"measurement": "Body weight at PND4", "setting": "[2]; males", "value": "dose-dependent decrease"}, {"measurement": "Body weight PND4: CEDLbt", "setting": "[2]; males, CES −0.05, Fig. 2a", "value": "1e−12", "unit": "µg/kg body weight/day"}, {"measurement": "Body weight PND4: CEDUbt", "setting": "[2]; males, CES −0.05, Fig. 2a", "value": 42.23, "unit": "µg/kg body weight/day"}, {"measurement": "Body weight PND4: CED", "setting": "[2]; males, CES −0.05, Fig. 2a, unit from legend", "value": 0.0039, "unit": "µg/kg body weight/day"}, {"measurement": "Body weight in weeks 22 and 23", "setting": "[2]; males, high fat diet, data not shown", "value": "dose-dependent decrease"}, {"measurement": "Tolerable daily intake (TDI)", "setting": "[3]", "value": 1.5, "unit": "µg/kg bw/d"}, {"measurement": "White adipose tissue cell number", "setting": "[4]; females", "value": "did not differ"}, {"measurement": "White adipose tissue adipocyte cell size", "setting": "[4]; females, p < 0.05", "value": "significantly decreased"}, {"measurement": "White adipose tissue cell number", "setting": "[4]; males", "value": "no differences"}, {"measurement": "White adipose tissue adipocyte cell size", "setting": "[4]; males", "value": "no differences"}]}]}
